Laboratory results taken from US11655216B2 (priority 2016, dated 2023).
Where two headings read alike, the source gives them in different places.

Tests used:
[1] = target: T1, glutathione-S-transferase (GST) tagged LXRalpha LBD (ligand binding domain) (Homo sapiens, UniProt Q13133); assay: biochemical; settings: for EC50 / LXR alpha IP: potency (Inflection Point), compound-induced co-activator recruitment, TR-FRET
T1 construct: purchased Invitrogen pv4655
T1 sequence (Q13133 209-447 limits assumed): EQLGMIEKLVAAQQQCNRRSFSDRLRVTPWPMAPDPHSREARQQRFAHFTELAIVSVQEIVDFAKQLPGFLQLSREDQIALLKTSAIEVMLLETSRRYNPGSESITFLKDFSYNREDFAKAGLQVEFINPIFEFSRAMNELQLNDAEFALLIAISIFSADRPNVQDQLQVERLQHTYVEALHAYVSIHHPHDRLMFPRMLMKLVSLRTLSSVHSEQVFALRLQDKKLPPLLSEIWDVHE
Outline: (§1)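 TR-FRET coactivator recruitment read-out: compounds first received either LBD, followed by a mix of terbium-labelled anti-GST antibody and fluorescein coactivator peptide. Signal measured by time-resolved FRET once plates had incubated at room temperature.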

[2] = target: T2, glutathione-S-transferase (GST) tagged LXRbeta LBD (ligand binding domain) (Homo sapiens, UniProt P55055); assay: LanthaScreen TR-FRET Liver X Receptor Coactivator Assay, LXR beta; type: biochemical; settings: for EC50: LXR beta IP, potency (Inflection Point), compound-induced co-activator recruitment, TR-FRET; for Emax: read-out: LXR beta actiivty at max dose, efficacy (% Emax) in relation to reference dual agonist T0901317
T2 construct: purchased Invitrogen pv4658
T2 sequence (P55055 222-460 limits assumed): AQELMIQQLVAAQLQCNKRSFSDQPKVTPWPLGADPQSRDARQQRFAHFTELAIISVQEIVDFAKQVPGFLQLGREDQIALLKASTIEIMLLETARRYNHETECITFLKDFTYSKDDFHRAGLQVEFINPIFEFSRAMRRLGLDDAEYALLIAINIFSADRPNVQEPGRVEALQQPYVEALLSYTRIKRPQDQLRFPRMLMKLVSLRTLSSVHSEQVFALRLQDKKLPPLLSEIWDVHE
Outline: as §1

[3] = read-out: LXR alpha actiivty at max dose, efficacy (% Emax) in relation to reference dual agonist T0901317

SMILES	EC50 ([1]; LXR alpha IP) [nM]	Emax [1, 3] [%]	EC50 [2] [nM]	Emax [2] [%]	Emax ([1]; efficacy (% Emax) in relation to reference dual agonist T0901317, read-out: LXR alpha actiivty at max dose) [%]	EC50 ([1]; read-out: LXR alpha IP) [nM]	LXR alpha IP [1]
CCOC(=O)N1CCN(C(=O)c2ccc(OCCCCC3CCN(C(=O)C(O)(c4ccccc4)C(F)(F)F)CC3)nc2Cl)CC1 (stereo not drawn) [Example 3-18, ethyl 4-(2-chloro-6-(4-(1-(3,3,3-trifluoro-2-hydroxy-2-phenylpropanoyl)piperidin-4-yl)butoxy)nicotinoyl) piperazine-l-carboxylate]	498	33	17	75	–	–	–
CN(C)C(=O)c1ccc(OCCCCC2CCN(C(=O)C(O)(c3ccccc3)C(F)(F)F)CC2)nc1C#N (stereo not shown) [Example 4-1, 2-cyano-N,N-dimethyl-6-(4-(1-(3,3,3-trifluoro-2-hydroxy-2-phenylpropanoyl)piperidin-4-yl)butoxy)nicotinamide]	419	37	30	77	–	–	–
CN(C)C(=O)c1ccc(OCCCCC2CCN(C(=O)C(O)(c3ccccn3)C(F)(F)F)CC2)nc1Cl (stereo not shown) [Example 6-1, 2-chloro-N,N-dimethyl-6-(4-(1-(3,3,3-trifluoro-2-hydroxy-2-(pyridin-2-yl)propanoyl)piperidin-4-yl)butoxy)nicotinamide]	–	–	29	73	28	1330	–
CN(C)C(=O)c1ccc(OCCCCC2CCN(C(=O)C(O)(c3cccnc3)C(F)(F)F)CC2)nc1Cl (stereo not shown) [Example 6-2, 2-chloro-N,N-dimethyl-6-(4-(1-(3,3,3-trifluoro-2-hydroxy-2-(pyridin-3-yl)propanoyl)piperidin-4-yl)butoxy)nicotinamide]	1230	74	8	90	–	–	–
CN(C)C(=O)c1ccc(OCCCCC2CCN(S(=O)(=O)c3ccccc3C(F)(F)F)CC2)nc1Cl [Example 7-1, 2-chloro-N,N-dimethyl-6-(4-(1-(2-(trifluoromethyl)phenylsulfonyl)piperidin-4-yl)butoxy)nicotinamide]	776	82	36	138	–	–	–
CN(C)C(=O)c1ccc(OCCCCC2CCN(S(=O)(=O)c3c(Cl)cccc3Cl)CC2)nc1Cl [Example 7-2, 2-chloro-6-(4-(1-(2,6-dichlorophenylsulfonyl)piperidin-4-yl)butoxy)-N,N-dimethylnicotinamide]	429	80	23	122	–	–	–
CN(C)C(=O)c1ccc(OCCCCC2CCN(S(=O)(=O)c3ccccc3C#N)CC2)nc1Cl [Example 7-3, 2-chloro-6-(4-(1-(2-cyanophenylsulfonyl)piperidin-4-yl)butoxy)-N,N-dimethylnicotinamide]	2930	57	112	120	–	–	–
O=C(c1cscn1)N1CCC(CCCCOc2ccc(C(=O)N3CCCC3)c(Cl)c2)CC1 [Example 8-20, (2-chloro-4-(4-(1-(thiazole-4-carbonyl)piperidin-4-yl)butoxy)phenyl) (pyrrolidin-1-yl)methanone]	–	4	4410	25	–	–	No IP
CN(C)C(=O)c1ccc(OCCCCC2(C)CCN(C(=O)C3(c4ccccc4)CCCC3)CC2)cc1Cl [Example 9-1, 2-chloro-N,N-dimethyl-4-(4-(4-methyl-1-(1-phenylcyclopentanecarbonyl)piperidin-4-yl)butoxy)benzamide]	411	13	51	88	–	–	–
CN(C)C(=O)c1ccc(OCCC2CC23CCN(C(=O)C(C)(C)c2ccccc2)CC3)nc1Cl (stereo not shown) [Example 15-3, 2-chloro-N,N-dimethyl-6-(2-(6-(2-methyl-2-phenylpropanoyl)-6-azaspiro[2.5]octan-1-yl)ethoxy)nicotinamide]	202	67	5	102	–	–	–
CN(C)C(=O)c1ccc(OCC2CC3(CCN(C(=O)C(C)(C)c4ccccc4)CC3)C2)cc1Cl [Example 33-2, 2-chloro-N,N-dimethyl-4-((7-(2-methyl-2-phenylpropanoyl)-7-azaspiro[3.5]nonan-2-yl)methoxy)benzamide]	–	8	220	60	–	–	No IP
CN(C)C(=O)c1ccc(OCCC2CC3(CCN(C(=O)C(C)(C)c4ccccc4)CC3)C2)cc1Cl [Example 34-2, 2-chloro-N,N-dimethyl-4-(2-(7-(2-methyl-2-phenylpropanoyl)-7-azaspiro[3.5]nonan-2-yl)ethoxy)benzamide]	268	25	26	90	–	–	–
CC(C)(C(=O)N1CCC2(CC1)CC(CCOc1ccc(C(=O)N3CCCC3)c(Cl)c1)C2)c1ccccc1 [Example 34-3, 1-(2-(2-(3-chloro-4-(pyrrolidine-1-carbonyl)phenoxy)ethyl)-7-azaspiro[3.5]nonan-7-yl)-2-methyl-2-phenylpropan-1-one]	292	13	70	65	–	–	–
